Measured values reported in US9914736B2, “TrKA kinase inhibitors, compositions and methods thereof” (Merck Sharp & Dohme Corp., priority 2014, dated 2018).

The compounds below were run against human TrkA receptor (Homo sapiens (Human), UniProt P04629) (assay: DiscoverX PathHunter TrkA functional assay). Settings: U2OS cells expressing human TrkA-ProLink, Shc1-EA and p75NTR; compound 1 h, then NGF at ~80% of maximal response for 3 h; luminescence.
Assay type: cell-based

Chain of human TrkA receptor (P04629 33-796): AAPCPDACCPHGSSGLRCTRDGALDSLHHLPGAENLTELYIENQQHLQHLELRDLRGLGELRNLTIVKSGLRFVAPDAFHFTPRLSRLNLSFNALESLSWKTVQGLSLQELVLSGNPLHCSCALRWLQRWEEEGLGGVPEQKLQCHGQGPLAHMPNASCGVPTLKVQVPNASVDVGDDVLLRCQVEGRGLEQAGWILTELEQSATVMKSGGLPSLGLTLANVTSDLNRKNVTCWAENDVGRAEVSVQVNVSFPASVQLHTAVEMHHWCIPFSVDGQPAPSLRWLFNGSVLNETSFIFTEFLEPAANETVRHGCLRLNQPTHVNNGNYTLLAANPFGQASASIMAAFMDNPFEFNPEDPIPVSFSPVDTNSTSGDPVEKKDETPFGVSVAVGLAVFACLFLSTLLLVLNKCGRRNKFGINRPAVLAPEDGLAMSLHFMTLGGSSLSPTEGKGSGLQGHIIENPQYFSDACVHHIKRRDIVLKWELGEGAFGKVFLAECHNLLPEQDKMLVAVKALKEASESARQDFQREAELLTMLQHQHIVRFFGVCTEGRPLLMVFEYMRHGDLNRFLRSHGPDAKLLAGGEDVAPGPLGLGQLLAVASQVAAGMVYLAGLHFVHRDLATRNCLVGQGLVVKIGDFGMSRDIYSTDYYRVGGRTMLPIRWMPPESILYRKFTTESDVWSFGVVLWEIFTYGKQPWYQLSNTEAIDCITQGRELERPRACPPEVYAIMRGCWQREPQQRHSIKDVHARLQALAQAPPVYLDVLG

Row | SMILES | IC50 [nM]
1 | Cc1cc(-n2nc(-c3cnn(C)c3)cc2NC(=O)c2ccc(C(F)(F)F)c(-c3cccnc3)c2)n[nH]1 [Compound 8, N-(1″,5-dimethyl-1H,1″H-3,1′:3′,4″-terpyrazol-5′-yl)-3-pyridin-3-yl-4-(trifluoromethyl)benzamide] | 2100
2 | Cn1ccc(-c2cc(C(=O)Nc3cc(-c4ccncc4)nn3-c3ccc(F)c(F)c3)ccc2C(F)(F)F)n1 [Compound 9, N-[1-(3,4-difluorophenyl)-3-pyridin-4-yl-1H-pyrazol-5-yl]-3-(1-methyl-1H-pyrazol-3-yl)-4-(trifluoromethyl)benzamide] | 9.7
3 | Cn1ccc(-c2cc(C(=O)Nc3cc(Cn4cnnn4)nn3-c3ccccc3)ccc2C(F)(F)F)n1 [Compound 66, 3-(1-methyl-1H-pyrazol-3-yl)-N-[1-phenyl-3-(1H-tetrazol-1-ylmethyl)-1H-pyrazol-5-yl]-4-(trifluoromethyl)benzamide] | 2.3
4 | O=C(Nc1cc(-c2ccc(=O)[nH]n2)nn1-c1ccccc1)c1ccc(C(F)(F)F)c(-c2ccn(CC(F)(F)F)n2)c1 [Compound 70, N-[3-(6-oxo-1,6-dihydropyridazin-3-yl)-1-phenyl-1H-pyrazol-5-yl]-3-[1-(2,2,2-trifluoroethyl)-1H-pyrazol-3-yl]-4-(trifluoromethyl)benzamide] | 390
5 | Cn1ccc(-c2cc(C(=O)Nc3cc(Cc4nnnn4C)nn3-c3ccc(F)cc3)c(F)cc2C(F)(F)F)n1 [Compound 102, 2-fluoro-N-(1-(4-fluorophenyl)-3-((1-methyl-1H-tetrazol-5-yl)methyl)-1H-pyrazol-5-yl)-5-(1-methyl-1H-pyrazol-3-yl)-4-(trifluoromethyl)benzamide] | 0.4
6 | CNC(=O)Cn1nnc(Cc2cc(NC(=O)c3ccc(C(F)(F)F)c(-c4ccn(C)n4)c3)n(-c3ccc(F)cc3)n2)n1 [Compound 78, N-[1-(4-fluorophenyl)-3-({2-[2-(methylamino)-2-oxoethyl]-2H-tetrazol-5-yl}methyl)-1H-pyrazol-5-yl]-3-(1-methyl-1H-pyrazol-3-yl)-4-(trifluoromethyl)benzamide] | 1.6
7 | Cc1nc(-c2cc(C(=O)Nc3cc(-c4ccncc4)nn3-c3ccc(F)cc3)ccc2C(F)(F)F)no1 [Compound 29, N-[1-(4-fluorophenyl)-3-pyridin-4-yl-1H-pyrazol-5-yl]-3-(5-methyl-1,2,4-oxadiazol-3-yl)-4-(trifluoromethyl)benzamide] | 530
8 | O=C(Nc1cc(C(=O)N2CCC2)nn1-c1ccc(F)cc1)c1cc(-c2ncccn2)c(C(F)(F)F)cc1F [Compound 88, N-(3-(azetidine-1-carbonyl)-1-(4-fluorophenyl)-1H-pyrazol-5-yl)-2-fluoro-5-(pyrimidin-2-yl)-4-(trifluoromethyl)benzamide] | 14
9 | NC(=O)OCc1cc(NC(=O)c2cc(-c3ncccn3)c(C(F)(F)F)cc2F)n(-c2ccc(F)cc2)n1 [Compound 110, (5-(2-fluoro-5-(pyrimidin-2-yl)-4-(trifluoromethyl)benzamido)-1-(4-fluorophenyl)-1H-pyrazol-3-yl)methyl carbamate] | 7

The remaining lines, values ahead:

Row | IC50 [nM] | SMILES
10 | 7 | Cn1ccc(-c2cc(C(=O)Nc3[nH]ncc3-c3ccccc3)c(Cl)cc2C(F)(F)F)n1 [Compound 45, 2-chloro-5-(1-methyl-1H-pyrazol-3-yl)-N-(4-phenyl-1H-pyrazol-5-yl)-4-(trifluoromethyl)benzamide]
11 | 5.8 | Cn1ccc(-c2cc(C(=O)Nc3cn[nH]c3-c3ccccc3)c(Cl)cc2C(F)(F)F)n1 [Compound 49, 2-chloro-5-(1-methyl-1H-pyrazol-3-yl)-N-(5-phenyl-1H-pyrazol-4-yl)-4-(trifluoromethyl)benzamide]
12 | 6.6 | Cn1ccc(-c2cc(C(=O)Nc3cc(Cc4ccc(=O)[nH]n4)nn3-c3ccccc3)ccc2C(F)(F)F)n1 [Compound 28, 3-(1-methyl-1H-pyrazol-3-yl)-N-{3-[(6-oxo-1,6-dihydropyridazin-3-yl)methyl]-1-phenyl-1H-pyrazol-5-yl}-4-(trifluoromethyl)benzamide]
13 | 1.7 | Cn1ccc(-c2cc(C(=O)Nc3cc(Cc4nnnn4C)nn3-c3ccccc3)c(Cl)cc2C(F)(F)F)n1 [Compound 59, 2-chloro-5-(1-methyl-1H-pyrazol-3-yl)-N-{3-[(1-methyl-1H-tetrazol-5-yl)methyl]-1-phenyl-1H-pyrazol-5-yl}-4-(trifluoromethyl)benzamide]
14 | 16 | Cn1ccc(-c2cc(C(=O)Nc3cn(CCO)nc3-c3ccccc3)c(F)cc2C(F)(F)F)n1 [Compound 109, 2-fluoro-N-(1-(2-hydroxyethyl)-3-phenyl-1H-pyrazol-4-yl)-5-(1-methyl-1H-pyrazol-3-yl)-4-(trifluoromethyl)benzamide]
15 | 11 | Cn1ccc(-c2cc(C(=O)Nc3cn(C)nc3-c3ccccc3)ccc2C(F)(F)F)n1 [Compound 43, N-(1-methyl-3-phenyl-1H-pyrazol-4-yl)-3-(1-methyl-1H-pyrazol-3-yl)-4-(trifluoromethyl)benzamide]
16 | 11 | Cc1c(-c2cnn(C)c2)nn(-c2ccccc2)c1NC(=O)c1ccc(C(F)(F)F)c(-c2ccn(C)n2)c1 [Compound 44, N-(1′,4-dimethyl-1-phenyl-1H,1′H-3,4′-bipyrazol-5-yl)-3-(1-methyl-1H-pyrazol-3-yl)-4-(trifluoromethyl)benzamide]
